Assay results reported in US7358259B2, “HCV inhibitors and methods of using them” (Rigel Pharmaceuticals, Inc., priority 2003, dated 2008).

Test system: HCV replicon in 5-2Luc replicon cells
Assay: HCV Replicon Assay (luciferase)
Assay type: cell-based
Details: Hepatitis C virus; Table 4; assay not given
Experimental: Actively dividing 5-2Luc replicon cells were seeded at the density of 5000-7500 cells/well in the volume of 90 μl/well into 96 well plate(s). The cells were then incubated at 37° C. and 5% CO2 for 24 hours. The 5-2 cells are replicon cells licensed from Ralf Bartenschlager (Germany) and have a self-replicating RNA molecule in the Huh7 cell; the RNA contains HCV non-structural proteins that make the self-replication possible.
Various concentrations of compounds (in the volume of 10 μl) were added into each well 24 hours after seeding the cells. The cells were incubated for another 24 hours before luciferase assay.
After incubating the 5-2 Luc replicon cells with the compounds for 24 hours, media were aspirated from each well and Bright-Glo ([…]) luciferase assay reagents were added to each well according to the manufacturer's manual. Briefly, the Bright-Glo reagent was diluted with equal volume of PBS and an aliquote (100 μl) was added to each well. After incubating the plate at room temperature for 5 minutes, luciferase counts were taken using a luminometer.

| Structure (SMILES) | IC50 [µM] |
| --- | --- |
| COC(=O)c1cc2nnnn2c2ccccc12 [methyl tetrazolo[1,5-a]quinoline-5-car-boxylate] | > 10 |
| O=C(NOC1CCCCO1)c1cc2cc(Cl)ccc2n2nnnc12 (stereo not shown) [7-chloro-N-(tetrahydro-2H-pyran-2-yl-oxy)tetrazolo[1,5-a]quinoline-4-car-boxamide] | > 10 |
| CCOC(=O)c1cc2cc(Cl)ccc2n2cnnc12 [ethyl 7-chloro-[1,2,4]tri-azolo[4,3-a]quinoline-4-car-boxylate] | > 10 |
| O=C(NOC1CCCCO1)c1cc2ccccc2n2nnnc12 (stereo not shown) [N-(tetrahydro-2H-pyran-2-yl-oxy)tetrazolo[1,5-a]quinoline-4-car-boxamide] | > 10 |
| O=C(NO)c1cc2nnnn2c2ccccc12 [N-hydroxytetrazolo[1,5-a]quino-line-5-carboxamide] | > 10 |
| O=C(NOC1CCCCO1)c1cc2cc(Cl)cc(Cl)c2n2cnnc12 (stereo not shown) [7,9-dichloro-N-(tetrahydro-2H-py-ran-2-yloxy)-[1,2,4]tri-azolo[4,3-a]quinoline-4-car-boxamide] | > 10 |
| O=C(NOC1CCCCO1)c1cc2nnnn2c2ccccc12 (stereo not shown) [N-(tetrahydro-2H-pyran-2-yl-oxy)tetrazolo[1,5-a]quinoline-5-car-boxamide] | > 10 |
| O=C(NO)c1cc2ccc(Cl)cc2n2nnnc12 [8-chloro-N-hydroxytetrazolo[1,5-a]quino-line-4-carboxamide] | < 10 |
| O=C(NOC1CCCCO1)c1cc2ccc(OC(F)(F)F)cc2n2nnnc12 (stereo not shown) [N-(tetrahydro-2H-pyran-2-yloxy)-8-(tri-fluoromethoxy)tetrazolo[1,5-a]quino-line-4-carboxamide] | > 10 |
| ClC(Cl)c1nnc(-c2cc3nnnn3c3ccccc23)o1 [5-(5-(dichloromethyl)-1,3,4-oxa-diazol-2-yl)tetrazolo[1,5-a]quino-line] | > 10 |
| Cc1cccc2cc(C(=O)NO)c3nnnn3c12 [N-hydroxy-9-methyltetrazolo[1,5-a]quino-line-4-carboxamide] | < 10 |
| COc1cc2cc(C(=O)NO)c3nnnn3c2cc1Cl [8-chloro-N-hydroxy-7-meth-oxytetrazolo[1,5-a]quino-line-4-carboxamide] | < 10 |
| Cc1nnc2c(C(=O)NO)cc3cc(Cl)ccc3n12 [7-chloro-N-hydroxy-1-methyl-[1,2,4]tri-azolo[4,3-a]quinoline-4-car-boxamide] | < 10 |
| O=C(O)c1cc2ccc(F)cc2n2cnnc12 [8-fluoro-[1,2,4]triazolo[4,3-a]quino-line-4-carboxylic acid] | > 10 |
| O=C(NO)c1cc2cc(Cl)ccc2n2nnnc12 [7-chloro-N-hydroxytetrazolo[1,5-a]quino-line-4-carboxamide] | < 10 |
| O=C(NOC1CCCCO1)c1cc2cccc(Cl)c2n2nnnc12 (stereo not shown) [9-chloro-N-(tetrahydro-2H-pyran-2-yl-oxy)tetrazolo[1,5-a]quinoline-4-car-boxamide] | > 10 |
| O=C(NOC1CCCCO1)c1cc2cc(Cl)cc(Cl)c2n2nnnc12 (stereo not shown) [7,9-dichloro-N-(tetrahydro-2H-py-ran-2-yloxy)tetrazolo[1,5-a]quino-line-4-carboxamide] | > 10 |
| COc1ccc2cc(C(=O)NO)c3nnnn3c2c1 [N-hydroxy-8-meth-oxytetrazolo[1,5-a]quino-line-4-carboxamide] | > 10 |
| CCOC(=O)c1cc2cc(Cl)cc(Cl)c2n2cnnc12 [ethyl 7,9-dichloro-[1,2,4]tri-azolo[4,3-a]quinoline-4-car-boxylate] | > 10 |
| O=C(NO)c1cc2cc(F)ccc2n2nnnc12 [7-fluoro-N-hydroxytetrazolo[1,5-a]quino-line-4-carboxamide] | < 10 |
| COC(=O)c1cc2ccc(F)cc2n2cnnc12 [methyl 8-fluoro-[1,2,4]tri-azolo[4,3-a]quinoline-4-car-boxylate] | > 10 |
| O=C(NOC1CCCCO1)c1cc2c(Cl)cccc2n2nnnc12 (stereo not shown) [6-chloro-N-(tetrahydro-2H-pyran-2-yl-oxy)tetrazolo[1,5-a]quinoline-4-car-boxamide] | > 10 |
| O=C(NO)c1cnc2ccccc2c1 [N-hydroxyquinoline-3-car-boxamide] | > 10 |

| Structure (SMILES) | IC50 [µM] |
| --- | --- |
| O=C(NO)c1cc2c(Cl)cccc2n2nnnc12 [6-chloro-N-hydroxytetrazolo[1,5-a]quino-line-4-carboxamide] | < 10 |
| O=C(NO)c1cc2cc(Cl)cc(Cl)c2n2nnnc12 [7,9-dichloro-N-hy-droxytetrazolo[1,5-a]quinoline-4-car-boxamide] | < 10 |
| Cc1cc(C)c2c(c1)cc(C(=O)NO)c1nnnn12 [N-hydroxy-7,9-di-methyltetrazolo[1,5-a]quino-line-4-carboxamide] | < 10 |
| O=C(NO)c1cc2ccccc2n2nnnc12 [N-hydroxytetrazolo[1,5-a]quino-line-4-carboxamide] | < 10 |
| O=C(NO)c1cc2ccc(C(F)(F)F)cc2n2nnnc12 [N-hydroxy-8-(tri-fluoromethyl)tetrazolo[1,5-a]quino-line-4-carboxamide] | < 10 |
| O=C(NO)c1cc2cc(Cl)ccc2n2cnnc12 [7-chloro-N-hydroxy-[1,2,4]tri-azolo[4,3-a]quinoline-4-car-boxamide] | < 10 |
| COc1cc2cc(C(=O)NO)c3nnnn3c2cc1OC [N-hydroxy-7,8-di-methoxytetrazolo[1,5-a]quino-line-4-carboxamide] | < 10 |
| O=C(NO)c1cc2cc(Cl)cc(Cl)c2n2cnnc12 [7,9-dichloro-N-hydroxy-[1,2,4]tri-azolo[4,3-a]quinoline-4-car-boxamide] | < 10 |
| O=C(NO)c1cc2ccc(OC(F)(F)F)cc2n2nnnc12 [N-hydroxy-8-(tri-fluoromethoxy)tetrazolo[1,5-a]quino-line-4-carboxamide] | < 10 |
| COc1cc2cc(C(=O)NOC3CCCCO3)c3nnnn3c2cc1Cl (stereo not shown) [8-chloro-7-methoxy-N-(tetra-hydro-2H-pyran-2-yl-oxy)tetrazolo[1,5-a]quinoline-4-car-boxamide] | > 10 |
| COc1ccc2cc(C(=O)NOC3CCCCO3)c3nnnn3c2c1 (stereo not shown) [8-methoxy-N-(tetrahydro-2H-py-ran-2-yloxy)tetrazolo[1,5-a]quino-line-4-carboxamide] | > 10 |
| O=C(NO)c1cc2ccccc2nc1Cl [2-chloro-N-hydroxyquinoline-3-car-boxamide] | > 10 |
| COc1cc2cc(C(=O)NOC3CCCCO3)c3nnnn3c2cc1OC (stereo not shown) [7,8-dimethoxy-N-(tetrahydro-2H-py-ran-2-yloxy)tetrazolo[1,5-a]quino-line-4-carboxamide] | < 10 |
| CN(O)C(=O)c1cc2ccc(Cl)cc2n2nnnc12 [8-chloro-N-hydroxy-N-meth-yltetrazolo[1,5-a]quinoline-4-car-boxamide] | > 10 |
| O=C(NO)c1cc2cc3c(cc2n2nnnc12)OCCO3 [N-hydroxy-8,9-di-hydro[1,4]dioxino[2,3-g]tetra-zolo[1,5-a]quinoline-4-car-boxamide] | < 10 |
| O=C(NO)c1cc2cccc(Cl)c2n2nnnc12 [9-chloro-N-hydroxytetrazolo[1,5-a]quino-line-4-carboxamide] | < 10 |
| Cc1cccc2cc(C(=O)NOC3CCCCO3)c3nnnn3c12 (stereo not shown) [9-methyl-N-(tetrahydro-2H-pyran-2-yl-oxy)tetrazolo[1,5-a]quinoline-4-car-boxamide] | > 10 |
| CCOC(=O)c1cc2cc(Cl)ccc2n2c(C)nnc12 [ethyl 7-chloro-1-methyl-[1,2,4]tri-azolo[4,3-a]quinoline-4-car-boxylate] | > 10 |
| Cc1cc(C)c2c(c1)cc(C(=O)NOC1CCCCO1)c1nnnn12 (stereo not shown) [7,9-dimethyl-N-(tetrahydro-2H-py-ran-2-yloxy)tetrazolo[1,5-a]quino-line-4-carboxamide] | > 10 |
| O=C(NO)c1cc2ccc(F)cc2n2c(Cl)nnc12 [1-chloro-8-fluoro-N-hydroxy-[1,2,4]tri-azolo[4,3-a]quinoline-4-car-boxamide] | < 10 |
| O=C(NOC1CCCCO1)c1cc2cc(Cl)ccc2n2cnnc12 (stereo not shown) [7-chloro-N-(tetrahydro-2H-pyran-2-yl-oxy)-[1,2,4]triazolo[4,3-a]quino-line-4-carboxamide] | > 10 |
| O=C(O)c1cc2cc(Cl)cc(Cl)c2n2cnnc12 [7,9-dichloro-[1,2,4]triazolo[4,3-a]quino-line-4-carboxylic acid] | > 10 |
| O=C(NOC1CCCCO1)c1cc2ccc(F)cc2n2c(Cl)nnc12 (stereo not shown) [1-chloro-8-fluoro-N-(tetrahydro-2H-py-ran-2-yloxy)-[1,2,4]tri-azolo[4,3-a]quinoline-4-car-boxamide] | > 10 |
